Assay results as given in ChEMBL document CHEMBL6083240, “Design, synthesis and biological evaluation of arylpropylamine derivatives as potential multi-target antidepressants” (Bioorg Med Chem, 2024).
Activity calls are given as the source filed them. No cut-off for these calls is given here.

Tests used:
Mus musculus [1] = assay: Antidepressant activity in Kunming mouse chronic unpredictable mild stress model assessed as increase in sucrose preference at 20 mg/kg, IG measured after 1 to 3 weeks; assay type: functional, organism-based; conditions: time 1-3 weeks
Transporter [2] = biological target: T1, Transporter (Rattus norvegicus, UniProt Q63380); assay: Displacement of [3H]-nisoxetine from NET in rat hippocampal membrane incubated for 8 hrs by liquid scintillation counting method; assay type: cell membranes, Hippocampus
T1 sequence (Q63380 whole entry): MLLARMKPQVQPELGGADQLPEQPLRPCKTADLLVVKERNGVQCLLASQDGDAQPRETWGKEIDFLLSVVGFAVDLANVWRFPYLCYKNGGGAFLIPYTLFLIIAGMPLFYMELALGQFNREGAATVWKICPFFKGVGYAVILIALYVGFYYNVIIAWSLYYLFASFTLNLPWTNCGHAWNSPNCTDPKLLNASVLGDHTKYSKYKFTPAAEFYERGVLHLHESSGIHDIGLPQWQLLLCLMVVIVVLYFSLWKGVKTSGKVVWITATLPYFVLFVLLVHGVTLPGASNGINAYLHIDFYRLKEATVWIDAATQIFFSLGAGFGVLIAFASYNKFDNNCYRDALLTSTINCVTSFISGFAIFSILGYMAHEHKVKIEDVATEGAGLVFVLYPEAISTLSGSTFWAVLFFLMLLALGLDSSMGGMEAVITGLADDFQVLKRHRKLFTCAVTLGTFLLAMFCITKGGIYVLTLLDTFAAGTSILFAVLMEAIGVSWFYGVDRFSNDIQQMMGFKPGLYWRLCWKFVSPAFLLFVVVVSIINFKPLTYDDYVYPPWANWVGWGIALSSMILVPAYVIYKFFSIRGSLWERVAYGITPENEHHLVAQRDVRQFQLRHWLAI

[3] = biological target: Sodium-dependent serotonin transporter (Rattus norvegicus, UniProt P31652); assay: Displacement of [3H]-paroxetine from SERT in rat cerebral cortex incubated for 10 mins by liquid scintillation counting method; assay type: tissue-based
Chain of Sodium-dependent serotonin transporter (P31652 whole entry): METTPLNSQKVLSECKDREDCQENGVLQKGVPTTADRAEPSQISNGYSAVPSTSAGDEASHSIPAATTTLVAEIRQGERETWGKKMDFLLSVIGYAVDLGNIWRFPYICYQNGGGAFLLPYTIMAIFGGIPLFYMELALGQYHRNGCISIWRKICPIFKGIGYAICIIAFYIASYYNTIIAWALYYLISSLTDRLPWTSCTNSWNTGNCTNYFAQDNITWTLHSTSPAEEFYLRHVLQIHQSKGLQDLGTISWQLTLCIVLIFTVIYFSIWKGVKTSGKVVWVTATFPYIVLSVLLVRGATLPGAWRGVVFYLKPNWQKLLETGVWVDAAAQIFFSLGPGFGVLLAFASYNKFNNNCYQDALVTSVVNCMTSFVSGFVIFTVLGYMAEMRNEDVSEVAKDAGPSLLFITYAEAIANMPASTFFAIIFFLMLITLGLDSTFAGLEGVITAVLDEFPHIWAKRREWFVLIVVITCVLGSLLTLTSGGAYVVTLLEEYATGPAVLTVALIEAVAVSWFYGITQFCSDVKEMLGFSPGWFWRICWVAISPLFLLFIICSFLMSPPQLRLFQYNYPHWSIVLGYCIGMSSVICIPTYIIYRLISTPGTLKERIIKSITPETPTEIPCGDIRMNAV

[4] = biological target: T2, Alpha-1A adrenergic receptor (Rattus norvegicus, UniProt P43140); assay: Displacement of [3H]-prazosin from adrenergic alpha-1 receptor in rat cerebral cortex incubated for 60 mins by liquid scintillation counting method; assay type: toxicity, tissue-based
T2 sequence (P43140 whole entry): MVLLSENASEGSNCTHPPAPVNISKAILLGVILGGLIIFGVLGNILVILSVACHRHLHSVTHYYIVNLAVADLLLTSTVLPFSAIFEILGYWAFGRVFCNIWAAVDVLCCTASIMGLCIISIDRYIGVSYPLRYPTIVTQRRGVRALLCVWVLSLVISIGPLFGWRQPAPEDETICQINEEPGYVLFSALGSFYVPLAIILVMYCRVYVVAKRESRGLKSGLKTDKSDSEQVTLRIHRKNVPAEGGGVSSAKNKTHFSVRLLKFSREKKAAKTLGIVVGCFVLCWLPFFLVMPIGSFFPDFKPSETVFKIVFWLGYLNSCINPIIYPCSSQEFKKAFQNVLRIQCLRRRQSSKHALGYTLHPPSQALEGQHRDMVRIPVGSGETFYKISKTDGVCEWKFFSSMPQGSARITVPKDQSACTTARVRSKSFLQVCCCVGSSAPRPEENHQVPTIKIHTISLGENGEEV

[5] = biological target: T3, 5-hydroxytryptamine receptor 2C (Rattus norvegicus, UniProt P08909); assay: Displacement of [3H]-mesulergine from 5-HT2C in rat cerebral cortex incubated for 15 mins by liquid scintillation counting method; assay type: tissue-based
T3 sequence (P08909 whole entry): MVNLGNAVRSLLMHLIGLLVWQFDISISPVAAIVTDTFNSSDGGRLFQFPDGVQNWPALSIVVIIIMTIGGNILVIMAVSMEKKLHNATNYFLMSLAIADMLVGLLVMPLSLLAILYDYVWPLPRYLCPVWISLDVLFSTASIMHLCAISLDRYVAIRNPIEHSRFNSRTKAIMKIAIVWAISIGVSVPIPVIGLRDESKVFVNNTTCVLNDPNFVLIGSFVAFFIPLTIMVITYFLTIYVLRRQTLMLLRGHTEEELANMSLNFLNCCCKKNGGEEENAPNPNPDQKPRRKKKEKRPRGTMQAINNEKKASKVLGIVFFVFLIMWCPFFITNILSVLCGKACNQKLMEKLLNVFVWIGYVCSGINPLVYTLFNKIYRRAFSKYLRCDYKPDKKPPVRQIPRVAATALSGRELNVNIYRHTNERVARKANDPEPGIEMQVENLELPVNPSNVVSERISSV

[6] = biological target: 5-hydroxytryptamine receptor 2A (Rattus norvegicus, UniProt P14842); assay: Displacement of [3H]-ketanserin from 5-HT2A in rat cerebral cortex incubated for 15 mins by liquid scintillation counting method; assay type: tissue-based
Chain of 5-hydroxytryptamine receptor 2A (Rattus norvegicus, UniProt P14842) (P14842 whole entry): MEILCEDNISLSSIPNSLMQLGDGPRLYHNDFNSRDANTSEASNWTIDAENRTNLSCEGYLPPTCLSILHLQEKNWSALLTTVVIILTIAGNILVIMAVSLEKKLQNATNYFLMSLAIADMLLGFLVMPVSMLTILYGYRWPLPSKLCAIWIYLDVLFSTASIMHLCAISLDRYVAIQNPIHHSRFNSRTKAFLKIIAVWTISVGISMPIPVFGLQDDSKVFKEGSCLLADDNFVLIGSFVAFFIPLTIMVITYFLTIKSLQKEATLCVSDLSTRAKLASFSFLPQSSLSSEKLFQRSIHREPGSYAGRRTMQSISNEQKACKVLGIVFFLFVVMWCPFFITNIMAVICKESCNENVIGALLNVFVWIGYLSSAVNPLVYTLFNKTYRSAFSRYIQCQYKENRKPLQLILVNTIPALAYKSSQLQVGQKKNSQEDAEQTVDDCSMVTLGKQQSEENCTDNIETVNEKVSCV

histamine H1 receptor = assay: Displacement of [3H]-pyrilamine from H1 receptor in guinea pig cerebellum membrane incubated for 60 mins by liquid scintillation counting method; assay type: toxicity, cell membranes, Cavia porcellus; conditions: probe [3H]-pyrilamine
[7] = biological target: Voltage-gated inwardly rectifying potassium channel KCNH2 (Homo sapiens, UniProt Q12809); assay: Inhibition of human ERG expressed in HEK293 cells by whole-cell patch clamp method; assay type: toxicity, cell-based
Chain of Voltage-gated inwardly rectifying potassium channel KCNH2 (Q12809 whole entry): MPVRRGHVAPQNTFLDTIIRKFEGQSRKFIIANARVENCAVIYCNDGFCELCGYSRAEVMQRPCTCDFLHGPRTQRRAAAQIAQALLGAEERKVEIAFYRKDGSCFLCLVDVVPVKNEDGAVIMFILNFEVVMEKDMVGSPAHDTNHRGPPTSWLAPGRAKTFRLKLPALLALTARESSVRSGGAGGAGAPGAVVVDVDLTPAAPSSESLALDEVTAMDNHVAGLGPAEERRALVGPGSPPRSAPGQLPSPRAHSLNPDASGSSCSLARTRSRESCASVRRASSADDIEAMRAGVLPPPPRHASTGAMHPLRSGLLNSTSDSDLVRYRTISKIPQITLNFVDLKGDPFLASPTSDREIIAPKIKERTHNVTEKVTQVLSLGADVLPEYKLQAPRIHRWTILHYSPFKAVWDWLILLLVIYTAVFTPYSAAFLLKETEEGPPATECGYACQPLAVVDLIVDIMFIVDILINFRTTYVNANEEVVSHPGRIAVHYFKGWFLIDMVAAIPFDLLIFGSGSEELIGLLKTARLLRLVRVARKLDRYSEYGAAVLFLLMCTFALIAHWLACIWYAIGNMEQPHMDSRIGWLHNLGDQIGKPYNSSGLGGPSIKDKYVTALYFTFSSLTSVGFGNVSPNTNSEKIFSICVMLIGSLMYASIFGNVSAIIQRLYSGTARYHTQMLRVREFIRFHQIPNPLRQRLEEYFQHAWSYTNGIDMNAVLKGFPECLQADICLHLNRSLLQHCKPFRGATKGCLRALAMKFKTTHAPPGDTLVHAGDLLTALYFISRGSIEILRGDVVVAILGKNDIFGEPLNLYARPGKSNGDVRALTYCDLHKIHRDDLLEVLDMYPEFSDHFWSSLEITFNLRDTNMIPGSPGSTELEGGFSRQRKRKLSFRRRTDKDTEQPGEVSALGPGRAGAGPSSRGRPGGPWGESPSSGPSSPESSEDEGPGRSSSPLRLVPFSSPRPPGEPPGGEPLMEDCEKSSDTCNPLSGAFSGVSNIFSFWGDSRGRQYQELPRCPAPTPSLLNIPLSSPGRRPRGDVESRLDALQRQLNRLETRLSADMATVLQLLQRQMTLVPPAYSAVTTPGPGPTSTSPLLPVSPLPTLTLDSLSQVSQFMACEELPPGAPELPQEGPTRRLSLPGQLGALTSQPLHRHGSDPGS

[8] = biological target: T4, 5-hydroxytryptamine receptor 2A (Homo sapiens, UniProt P28223); assay: Antagonist activity at 5-HT2A in HEK293 cells at 10 uM incubated for 60 mins by FLIPR assay relative to control; assay type: cell-based; design: scale not given: the % may be the effect or the level left; conditions: filed as antagonist
T4 sequence (P28223 whole entry): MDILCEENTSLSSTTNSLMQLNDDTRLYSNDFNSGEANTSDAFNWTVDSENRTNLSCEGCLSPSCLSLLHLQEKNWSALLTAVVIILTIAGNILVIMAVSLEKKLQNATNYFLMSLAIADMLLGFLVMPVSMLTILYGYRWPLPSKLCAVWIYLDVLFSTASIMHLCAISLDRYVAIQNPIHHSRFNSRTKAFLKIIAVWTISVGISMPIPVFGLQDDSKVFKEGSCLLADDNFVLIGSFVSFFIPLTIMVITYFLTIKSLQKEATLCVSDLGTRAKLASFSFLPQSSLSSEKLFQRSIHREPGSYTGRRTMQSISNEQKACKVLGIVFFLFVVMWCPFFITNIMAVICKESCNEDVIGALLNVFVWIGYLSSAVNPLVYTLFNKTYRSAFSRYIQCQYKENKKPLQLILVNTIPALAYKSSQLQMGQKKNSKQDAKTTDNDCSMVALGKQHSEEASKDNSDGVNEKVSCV

[9] = biological target: T4, 5-hydroxytryptamine receptor 2A; assay: Agonist activity at 5-HT2A in HEK293 cells at 10 uM incubated for 60 mins by FLIPR assay relative to control; assay type: functional, cell-based
Transporter [10] = biological target: T1, Transporter; assay: Binding affinity to rat NET
Rattus norvegicus = assay: Antidepressant activity against ACTH-induced treatment resistant depression in Sprague-Dawley rat model assessed as reduction in immobility time at 30 mg/kg, ip by forced swimming test; assay type: functional, organism-based
Mus musculus [11] = assay: Antidepressant activity in IG dosed Kunming mouse assessed as decrease in immobility time by measuring minimal effective dose by tail suspension test; assay type: functional
Mus musculus [12] = assay: Antidepressant activity in IG dosed Kunming mouse assessed as decrease in immobility time by measuring minimal effective dose by forced swimming test; assay type: functional
[13] = In vivo inhibition of 5-HT2A in po dosed DOI-induced Kunming mouse assessed as reduction in head twitch response pretreated for 60 mins followed by DOI induction and measured for 20 mins; assay type: functional; conditions: 1.333 h, time 80 min
[14] = Acute toxicity in po dosed Sprague-Dawley rat assessed as mortality rate measured after 24 hrs; assay type: organism-based; conditions: in vivo
[15] = biological target: Sodium-dependent serotonin transporter (Rattus norvegicus) (UniProt P31652); assay: Antagonist activity at rat cerebral cortex membrane SERT at 10 uM incubated for 10 mins in presence of [3H]5-HT relative to control; assay type: cell membranes; design: scale not given: the % may be the effect or the level left; conditions: filed as antagonist
Chain of Sodium-dependent serotonin transporter (Rattus norvegicus) (P31652 whole entry): as the sequence (P31652 whole entry) above

[16] = biological target: 5-hydroxytryptamine receptor 2C (Homo sapiens, UniProt P28335); assay: Antagonist activity at 5-HT2C in HEK293 cells incubated for 60 mins by FLIPR assay; assay type: cell-based
[17] = biological target: T5, 5-hydroxytryptamine receptor 2C (Homo sapiens) (UniProt P28335); assay: Antagonist activity at 5-HT2C in HEK293 cells at 10 uM incubated for 60 mins by FLIPR assay relative to control; assay type: cell-based; design: scale not given: the % may be the effect or the level left; conditions: filed as antagonist
T5 sequence (whole entry): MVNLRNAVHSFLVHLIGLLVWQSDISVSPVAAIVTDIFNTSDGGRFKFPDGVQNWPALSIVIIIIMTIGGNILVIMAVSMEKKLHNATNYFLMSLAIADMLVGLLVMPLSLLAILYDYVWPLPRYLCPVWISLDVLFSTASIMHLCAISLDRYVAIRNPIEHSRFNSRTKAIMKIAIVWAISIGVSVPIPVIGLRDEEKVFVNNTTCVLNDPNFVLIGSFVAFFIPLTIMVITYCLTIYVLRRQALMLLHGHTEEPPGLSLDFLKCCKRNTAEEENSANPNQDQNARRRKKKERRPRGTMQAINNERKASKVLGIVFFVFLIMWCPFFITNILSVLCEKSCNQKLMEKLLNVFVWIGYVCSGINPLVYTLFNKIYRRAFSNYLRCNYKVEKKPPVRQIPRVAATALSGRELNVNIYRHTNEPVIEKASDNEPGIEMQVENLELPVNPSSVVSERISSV

SMILES | Ki (Transporter [2]) [nM] | Ki [3] [nM] | also measured
CNCCC(Oc1ccc(C(F)(F)F)cc1)c1ccccc1 (centres undefined) |  |  | Activity (Mus musculus [1]): inactive
Cc1ccccc1C(CCN(C)C)Oc1cccc2c1OCO2 (centres undefined) | 247 | 157 | 
CNCCC(Oc1cccc2c1OCO2)c1ccccc1F (centres undefined) | 20.5 | 84.9 | 
COc1ccc(C(CCN(C)C)Oc2cccc3c2OCO3)cc1 (centres undefined) | 218 | 189 | 
CNCCC(Oc1cccc2c1OCO2)c1ccc(F)c(F)c1 (centres undefined) | 6.6 | 96.3 | 
CN(C)CCC(Oc1cccc2c1OCO2)c1ccccc1F (centres undefined) | 17.2 | 28 | 
CNCCC(Oc1cccc2c1OCO2)c1cccc(C)c1 (centres undefined) | 20.4 | 50.6 | 
CN(C)CCC(Oc1cccc2c1OCO2)c1ccc2c(c1)OCO2 (centres undefined) | 4.9 | 9.5 | Ki [4]: 134 nM; Ki [5]: 105 nM; Ki [6]: 55.1 nM; Ki at 60 min (histamine H1 receptor): 426 nM; IC50 [7]: 371 nM
CNCCC(Oc1cccc2c1OCO2)c1ccc(Cl)cc1 (centres undefined) | 14.8 | 77.3 | 
CNCCC(Oc1cccc2c1OCO2)c1ccc(OC)c(OC)c1 (centres undefined) | 19.9 | 217 | 
CNCCC(Oc1cccc2c1OCO2)c1ccccc1 (centres undefined) | 4.2 | 19.8 | Ki [4]: 992 nM; Ki [5]: 134 nM; Ki [6]: 156 nM; Ki at 60 min (histamine H1 receptor): 669 nM; IC50 [7]: 818 nM
CNCCC(Oc1cccc2c1OCO2)c1cccc(F)c1 (centres undefined) | 7.5 | 59.3 | 
CNCCC(Oc1cccc2c1OCO2)c1ccc(C)cc1 (centres undefined) | 48.8 | 17.4 | 
COc1ccccc1C(CCN(C)C)Oc1cccc2c1OCO2 (centres undefined) | 253 | 221 | 
CNCCC(Oc1cccc2c1OCO2)c1ccc(C(F)(F)F)cc1 (centres undefined) | 31.1 | 74.1 | 
O=C(c1ccc(F)cc1)C1CCN(CCn2c(=O)[nH]c3ccccc3c2=O)CC1 |  |  | Activity [8]: 98.3%
COc1cccc(C(CCN(C)C)Oc2cccc3c2OCO3)c1 (centres undefined) | 268 | 203 | 
NCCc1c[nH]c2ccc(O)cc12 |  |  | Activity [9]: 5.6%
CN(C)CCC(Oc1cccc2c1OCO2)c1ccc(F)c(F)c1 (centres undefined) | 139 | 237 | 
CN(C)CCC(Oc1cccc2c1OCO2)c1ccc(F)cc1 (centres undefined) | 2.8 | 4.2 | Ki [4]: 1240 nM; Ki [5]: 29.6 nM; Ki [6]: 35.3 nM; Ki at 60 min (histamine H1 receptor): 937 nM; IC50 [7]: 1110 nM
CN(C)CCC(Oc1cccc2c1OCO2)c1ccc(Cl)c(Cl)c1 (centres undefined) | 253 | 189 | 
NCCC(Oc1cccc2c1OCO2)c1ccccc1 (centres undefined) | 51 | 217 | 
CNCCC(Oc1cccc2c1OCO2)c1ccc(OC)cc1 (centres undefined) | 25.5 | 109 | 

SMILES | Ki (Transporter [2]) [nM] | Ki [3] [nM] | also measured
COc1ccc(C(CCN(C)C)Oc2cccc3c2OCO3)cc1OC (centres undefined) | 222 | 245 | 
CN(C)CCC(Oc1cccc2c1OCO2)c1ccc(Cl)cc1 (centres undefined) | 10.4 | 19.9 | 
CNCCC(Oc1cccc2c1OCO2)c1cccc(Cl)c1 (centres undefined) | 4.8 | 112 | 
CN(C)CCC(Oc1cccc2c1OCO2)c1ccccc1Cl (centres undefined) | 19.5 | 29.7 | 
CCc1nn(CCCN2CCN(c3cccc(Cl)c3)CC2)c(=O)n1CCOc1ccccc1 [NEFAZODONE] |  |  | Ki (Transporter [10]): 555 nM
Fc1ccc([C@@H]2CCNC[C@H]2COc2ccc3c(c2)OCO3)cc1 |  |  | Activity (Rattus norvegicus): inactive
Cc1ccc(C(CCN(C)C)Oc2cccc3c2OCO3)cc1 (centres undefined) | 195 | 69.7 | 
CN(C)CCC(Oc1cccc2c1OCO2)c1ccc(C(F)(F)F)cc1 (centres undefined) | 124 | 182 | 
CNCC[C@H](Oc1cccc2ccccc12)c1cccs1 [DULOXETINE] |  |  | Ki [4]: 1010 nM; Ki [5]: 2470 nM; Activity (Mus musculus [11]): Dose-dependent-effect; minimal effective dose (Mus musculus [11]; po, read-out: MED): 16 mg/kg; Ki [6]: 1240 nM; Activity (Mus musculus [12]): Dose-dependent-effect; minimal effective dose (Mus musculus [12]; po, read-out: MED): 16 mg/kg; Ki at 60 min (histamine H1 receptor): 1270 nM; ED50 [13]: 30.9 mg/kg; LD50 at 24 h [14]: 279 mg/kg
CNCCC(Oc1cccc2c1OCO2)c1ccccc1C (centres undefined) | 13.9 | 41.2 | 
CNCCC(Oc1cccc2c1OCO2)c1ccc(Cl)c(Cl)c1 (centres undefined) | 15 | 43.6 | 
CNCCC(Oc1cccc2c1OCO2)c1ccc(F)cc1 (centres undefined) | 5.4 | 68.6 | 
CN(C)CCCC1(c2ccc(F)cc2)OCc2cc(C#N)ccc21 (centres undefined) |  |  | Activity [15]: 100%
Cc1cccc(C(CCN(C)C)Oc2cccc3c2OCO3)c1 (centres undefined) | 214 | 159 | 
CN(C)CCC(Oc1cccc2c1OCO2)c1ccccc1 (centres undefined) | 29.4 | 98.4 | 
CNCCC(Oc1cccc2c1OCO2)c1ccccc1OC (centres undefined) | 30.2 | 64.2 | 
CN(C)CCC(Oc1cccc2c1OCO2)c1cccc(F)c1 (centres undefined) | 3 | 15.1 | Ki [4]: 1130 nM; Ki [5]: 63.4 nM; Ki [6]: 89.3 nM; Ki at 60 min (histamine H1 receptor): 549 nM; IC50 [7]: 940 nM
CN(C)CC[C@H](Oc1cccc2c1OCO2)c1ccc(F)cc1 | 12.7 | 3.3 | Ki [4]: 988 nM; Ki [5]: 71.2 nM; Ki [6]: 57.7 nM; Ki at 60 min (histamine H1 receptor): 823 nM; IC50 [7]: 907 nM
Cc1cc2c(cc1Cl)N(C(=O)Nc1ccc(Oc3cccnc3C)nc1)CC2 [SB-242084] |  |  | IC50 [16]: 19.7 nM; Activity [17]: 98.6%
CNCCC(Oc1cccc2c1OCO2)c1ccccc1Cl (centres undefined) | 26.6 | 57.4 | 
CNCCC(Oc1cccc2c1OCO2)c1ccc2c(c1)OCO2 (centres undefined) | 28.4 | 32.8 | 
CNCCC(Oc1cccc2c1OCO2)c1cccc(OC)c1 (centres undefined) | 11.1 | 48.2 | 
CN(C)CCC(Oc1cccc2c1OCO2)c1cccc(Cl)c1 (centres undefined) | 70.4 | 103 | 
